Measured values taken from patent publication US8637038B2, “Methods for inhibiting allograft rejection” (Rigel Pharmaceuticals, Inc., priority 2011, dated 2014).
Where two headings read alike, the source gives them in different places.

Legend:
JAK1/2 = test: IFN-γ U937 ICAM-1 surface expression; format: cell-based; conditions: for EC50: Homo sapiens
Protocol: (§1) The activity of Compound III and Compound I was assessed in a panel of cell-based assays. Compound III and Compound I are selective inhibitors of JAK1/3-dependent signaling. Data for a non-selective JAK inhibitor (Compound IV) is shown for reference. Mixed lymphocyte reactions (MLRs) were performed by incubating freshly prepared naive human peripheral blood lymphocytes from one donor with CD80+/CD86+ mature Dendritic Cells derived from a different donor for 5 days. The percentage of CD3+/CD71+ (anti-CD3-APC, Clone HIT3a, anti-CD 71-FITC, Clone M-A712; BD Biosciences, San Jose, Calif.) proliferating cells was assessed by fluorescence-activated cell sorting (FACS; BD Bioscience). Interleukin-2 (IL-2)-dependent human primary T cell proliferation was assessed using CellTiter-Glo® Luminescent Cell Viability Assay (Promega, Madison, Wis.). STAT phosphorylation induced by different cytokines in human primary T cells was measured by intracellular FACS analysis (anti-pY694-STAT5 AlexaFluor488, anti-pY701-STAT1 AlexaFluor488, and anti-pY693-STAT4 AlexaFluor488; BD Biosciences). STAT phosphorylation induced by different cytokines was performed in whole blood after red blood cell lysis (Lyse/Fix buffer, BD Biosciences) and methanol permeabilization. Interferon-γ (IFN-γ) signaling was assessed in the U937 monocytic cell line by measuring ICAM-1 surface expression by FACS (ICAM-1-APC, BD Bioscience).

[1] = tested on: Lew recipients of heterotopic BN heart transplants; test: Five-day heart allograft study: H+E histology, ISHLT rejection classification; format: in vivo, rat; conditions: HD (Compound I 60 mg/kg BID, Compound III 20 mg/kg BID, Tac 4 mg/kg QD); five days after transplantation
From the text: Male Brown Norway (BN) and Lewis (Lew) rats weighing 350 g were purchased from Harlan (Indianapolis, Ind.) and were housed under conventional conditions. All animals were fed standard rat chow and water ad libitum and received humane care in compliance with the Principles of Laboratory Animal Care formulated by the National Society for Medical Research and the Guide for the care and Use of Laboratory Animals published by the National Institutes of Health (National Institutes of Health publication No. 85-23, revised 1985). Allogeneic (BN-to-Lew) and syngeneic (Lew-to-Lew) heterotopic heart transplantations were performed as described previously (Ono et al., J. Thorac. Cardiovasc. Surg. 57:225-229, 1969). In brief, rats were anaesthetized using 2% isoflurane. The donor received an intravenous bolus of 500 I.U. heparin. Cardiac arrest was achieved using 20 ml Bretschneider solution (Custodiol, Dr. F. Koehler Chemie, Bensheim, Germany). […] Heart-beating score was assessed directly after transplantation for each animal from score 0 (no palpable contraction) to 4 (strong and regular contraction). Only animals with beating scores of 4 were included into the study. Compound I and Compound III were provided by Rigel (South San Francisco, Calif.) and Tacrolimus was provided by Astellas (Munich, Germany). All drugs were administrated orally each in two different concentrations: Compound I LD (15 mg/kg BID; n=6) and HD (60 mg/kg BID; n=6); […] Administration of all drugs was performed every day at the same time points. Tacrolimus was applied only once a day (QD) every 24 hours. During administration of Compound I (BID) and Compound III (BID) a 12 hour pause was kept in between each drug application. Lew recipients of heterotopic BN heart transplants were randomly assigned to their group. […] An untreated syngeneic transplant group Lew-Lew was generated as control. Grafts were recovered five days after transplantation and fixed in 4% paraformaldehyde (Science Services, Munich, Germany), dehydrated and embedded in paraffin. […] Waldeck, Carl Roth GmbH, Munster, Germany) and examined by standard light microscopy. The extent of acute cardiac graft rejection in H+E staining was examined by an experienced pathologist according to the 2004 ISHLT working formulation (Stewart et al., J. Heart Lung Transplant. 24:1710-1720, 2005).

[2] = tested on: Lew recipients of heterotopic BN heart transplants; test: Five-day heart allograft study: ELISPOT (IFN-γ, IL-4, IL-17) of recipient splenocytes; format: in vivo, rat; conditions: for IFN-γ spot frequency (ELISPOT) compared to no medication group: LD groups (Compound I 15 mg/kg BID, Compound III 5 mg/kg BID, Tac 1 mg/kg QD), five days; for suppression of IFN-γ response to donor-specific antigens compared to Tac LD treatment: LD groups
Protocol: Compound I and Compound III were provided by Rigel (South San Francisco, Calif.) and Tacrolimus was provided by Astellas (Munich, Germany). All drugs were administrated orally each in two different concentrations: Compound I LD (15 mg/kg BID; n=6) and HD (60 mg/kg BID; n=6); Compound III LD (5 mg/kg BID; n=6) and HD (20 mg/kg BID; n=6); Tac LD (1 mg/kg QD; n=6) and HD (4 mg/kg QD; n=6). Administration of all drugs was performed every day at the same time points. Tacrolimus was applied only once a day (QD) every 24 hours. During administration of Compound I (BID) and Compound III (BID) a 12 hour pause was kept in between each drug application.
Lew recipients of heterotopic BN heart transplants were randomly assigned to their group. Animals were either left untreated (groups 1 and 2; see Table 1,5-day study) or received their group specific medication (groups 3-8; see Table 1,5-day study) by oral application. An untreated syngeneic transplant group Lew-Lew was generated as control.
Lymphocytes were isolated from freshly harvested spleens. ELISPOT assays with 1×10^7/ml mitomycin-inhibited BN splenocytes and 1×10^6/ml Lew splenocytes were performed according to the manufacturer's protocol (BD Biosciences). 96-well plates were coated with IFN-γ, IL-17, and IL-4 to assess T helper cell (Th)1-, Th17-, and Th2-responses independently. All assays were performed in quadruplicates. Spots were automatically enumerated using an ELISPOT plate reader (CTL, Cincinnati, Ohio) for scanning and analyzing.

JAK1/3 [3] = test: IL-2 whole blood lymphocytes phospho-STAT5; format: cell-based; conditions: Lymphocyte, read-out: IL-2 whole blood lymphocytes phospho-STAT5 EC50
Protocol: as §1, with “STAT phosphorylation induced by different cytokines was performed in whole blood after red blood cell lysis (Lyse/Fix buffer, BD Biosciences) and methanol permeabilization.” left out

JAK1/3 [4] = test: IL-2 T cell phospho-STAT5; format: cell-based; conditions: Homo sapiens
Protocol: as §1

[5] = read-out: EC50, JAK1/3-dependent Stat5 phosphorylation in response to IL-2

Structure (SMILES)	inhibition of JAK1/2-dependent ICAM-1 expression in U937 cells in response to IFN-γ (JAK1/2)	EC50 (JAK1/2; U-937, upstream kinases JAK1/2, read-out: IFN-γ U937 ICAM-1 EC50) [nM]	hearts with ISHLT score of 0 [1] [%]	hearts with ISHLT score of 1 [1] [%]	hearts with ISHLT score of 2 [1] [%]	hearts with ISHLT score of 3 [1]	IL-17 cytokine release (ELISPOT) compared to no medication group ([2]; HD 60 mg/kg BID, p<0.010)	IL-17 cytokine release (ELISPOT) compared to no medication group ([2]; LD 15 mg/kg BID, p<0.001)	IL-17 spot frequency compared to Tac LD ([2]; LD 15 mg/kg BID, p<0.001)	IFN-γ spot frequency (ELISPOT) compared to no medication group [2]	suppression of IFN-γ response to donor-specific antigens compared to Tac LD treatment ([2]; p<0.001)	EC50 (JAK1/3 [3]; whole blood, JAK1/3) [nM]	EC50 (JAK1/3 [4]; [5]) [nM]	EC50 (JAK1/3 [4]; upstream kinases JAK1/3, read-out: IL-2 T cell phospho-STAT5 EC50) [nM]	EC50 (JAK1/2; U-937, read-out: IFN-γ U937 ICAM-1 EC50) [nM]	IFN-γ spot frequency compared to Tac HD group ([2]; Compound III LD 5 mg/kg BID, p<0.05)	EC50 (JAK1/3 [3]) [nM]	EC50 (JAK1/3 [4]; read-out: IL-2 T cell phospho-STAT5 EC50) [nM]
COc1cc(Nc2ncc(C)c(Nc3ccc4oc(=O)[nH]c4c3)n2)cc(C)c1F [Compound I, 5-(2-(4-fluoro-3-methoxy-5-methylphenylamino)-5-methylpyrimidin-4-ylamino)benzo[d]oxazol-2(3H)-one]	limited inhibition	417 ± 211	17	50	17	17%	significantly suppressed	significantly suppressed	significantly less spot frequency	significantly reduced	significantly better results	416 ± 152	21	21 ± 9	–	–	–	–
COc1cc(Nc2ncc(C)c(Nc3ccc4oc(=O)[nH]c4c3)n2)cc(C)c1C [Compound III, 5-(2-(3-methoxy-4,5-dimethylphenylamino)-5-methylpyrimidin-4-ylamino)benzol[d]oxazol-2-(3H)-one]	limited inhibition	–	33	50	17	no scores of 3	–	–	–	significantly reduced	significantly better results	–	35	–	791 ± 352	less IFN-γ spot frequency	887 ± 295	35 ± 15
